Source: patent US11297805B2, “Miticidal beehive entranceway” (priority 2019, dated 2022)

Columns and labels:
[1] = Simulated bee-flight (drone propeller) thymol decay and model of thymol dosage on a worker bee; design: species or system honey bee; conditions: 1 mg thymol/Hydromed behind drone propellers, 6 hours per day, exponential decay
Experimental: As such, a single worker bee would pass through the DF-TE 40×, receiving ˜0.7 μg per passage, or 28 μg per day.

Varroa mites = conditions: concentrated enough to kill the mites but not to harm the bees; cited from earlier work

**Q.** What does the source list for `Cc1ccc(C(C)C)c(O)c1` [thymol]?
**A.** time until a single daily dose of thymol is exhausted on the bee abdomen [1]: ≤ 4 days; therapeutic window of thymol vapor (Varroa mites): 5-15 microgram/liter of hive air
